Measured values reported in PMC9887599, “Synthesis, Optical Properties, and Antiproliferative Evaluation of NBD-Triterpene Fluorescent Probes” (Journal of Natural Products, 2022).

Tests used:
[1] = tested on: B16-F10 murine melanoma; assay: MTT cell-viability assay, B16-F10; assay type: cell-based; settings: Mus musculus, 72 h, untreated control cells as 100% viability
Procedure: (§1) The cytotoxic effects of 12 NBD-Aa-triterpene conjugates (1–12) were tested on three different cancer cell lines as a representation of cancers from different tissues and organs (B16-F10 murine melanoma, HT-29 human colon adenocarcinoma, and HepG2 human hepatocyte carcinoma). Cell viability was determined by MTT colorimetric analysis, with increasing concentration levels of each compound (0–200 μg/mL) and incubation for 72 h. The MTT assay was based on the metabolic reduction of 3-(4,5-dimethylthiazol-2-yl)-2,5-diphenyltetrazolium bromide (MTT) to a violet-colored compound (formazan), with a maximum absorbance at 570 nm. Cell viability was proportional to the amount of formazan and was expressed as the percentage of viable treated cells relative to untreated control cells. The concentration at which the derivatives halved the number of viable cells in the three cancer lines (IC50) was determined. […] These NBD conjugates of BO or BM also had higher IC50 values than their precursors (BO or BM), even in NBD conjugates with the shortest-chain ω-amino acid linker (6AHA) (Table 2). Due to these high IC50 values, all of these NBD-conjugated compounds were discarded for further cytometric studies.
(§2) The effect of the synthesized compounds on the viability of tumor cells was assessed using the MTT assay, based on the ability of living cells to metabolically reduce 3-(4,5-dimethylthiazole)-2,5-diphenyltetrazole bromide, rendering formazan, a colored compound with a maximum absorbance of 570 nm. To study the cytotoxic effects of the compounds in the three cancer cell lines, the different lines were seeded in 96-well plates at a cell density per well of 5 × 10^3 for B16-F10, 6 × 10^3 for HT-29, and 15 × 10^3 for HepG2. After seeding, the plates were grown for 24 h and subsequently treated in triplicate with different compounds at different concentrations (0–200 μg/mL) for 72 h. After this time, the cells were stained by adding […] of MTT (0.5 mg/mL) per well and incubated for 1 h. Subsequently, the cells were washed with phosphate-buffered saline (PBS), and formazan was resuspended in 100 μL of DMSO per well. Cell viability was measured by absorbance at 550 nm in an ELISA plate reader (Tecan Sunrise MR20–301, TECAN, Austria).
(§3) For this, Sigmaplot 12.5 software was used, and all quantitative data were expressed as means ± standard deviation (SD). All data shown are representative of at least two independent experiments performed in triplicate.

[2] = tested on: HT-29 human colon adenocarcinoma; assay: MTT cell-viability assay, HT-29; assay type: cell-based; settings: 72 h, untreated control cells as 100% viability
Procedure: as §1, §2, §3

[3] = tested on: HepG2 human hepatocyte carcinoma; assay: MTT cell-viability assay, HepG2; assay type: cell-based; settings: 72 h, untreated control cells as 100% viability
Procedure: as §1, §2, §3

[4] = tested on: B16-F10, HT-29, and HepG2; assay: MTT cell-viability assay, summary over the three cancer cell lines; assay type: cell-based, mouse, human; settings: 72 h, stated as holding in most cases, read-out: IC50 concentrations over the three cancer cell lines, in most cases
Procedure: as §1, §2, §3

[5] = Absorption and fluorescence spectroscopy (photophysical data); assay type: physicochemical; settings: DMSO, 25 °C; for τ (half-life time of fluorescence): 485 nm pulsed LED; for Φ (fluorescence quantum yield): Coumarin 6 as standard; for (λem)max: excitation at 480 nm

Compound | IC50 [1] [µM] | IC50 [2] [µM] | IC50 [4] [µM] | (λabs)max [5] [nm] | ε (molar extinction coefficient) [5] [M^–1 cm^–1] | τ (half-life time of fluorescence) [5] [ns] | Φ (fluorescence quantum yield) [5] | (λem)max [5] [nm] | IC50 [3] [µM]
CC1(C)CC[C@]2(C(=O)OCc3ccccc3)CC[C@]3(C)C(=CC[C@@H]4[C@@]5(C)C[C@@H](O)[C@H](O)C(C)(C)[C@@H]5CC[C@]43C)[C@@H]2C1 [BM, 28-benzyl maslinate, reference compound] | 19 ± 0.2 | 15.3 ± 0.5 |  |  |  |  |  |  | 17
CC1(C)CC[C@]2(C(=O)OCc3ccccc3)CC[C@]3(C)C(=CC[C@@H]4[C@@]5(C)CC[C@H](O)C(C)(C)[C@@H]5CC[C@]43C)[C@@H]2C1 [BO, 28-benzyl oleanolate, reference compound] | 52.2 ± 0.9 | 67.1 ± 3.2 |  |  |  |  |  |  | 38.7 ± 1.7
CC1(C)CC[C@]2(C(=O)OCc3ccccc3)CC[C@]3(C)C(=CC[C@@H]4[C@@]5(C)CC[C@H](OC(=O)CCCCCNc6ccc([N+](=O)[O-])c7nonc67)C(C)(C)[C@@H]5CC[C@]43C)[C@@H]2C1 [Compound 3, Benzyl 3β-((6-((7-Nitrobenzo[C][1,2,5]oxadiazol-4-yl)amino)hexanoyl)oxy)olean-12-en-28-oate] | 76.6 ± 3.7 | 63.3 ± 2.4 | > 80 | 480 | 4035 | 7.761 | 0.67 | 545 | 74.3 ± 0.7
CC1(C)CC[C@]2(C(=O)OCc3ccccc3)CC[C@]3(C)C(=CC[C@@H]4[C@@]5(C)C[C@@H](OC(=O)CCCCCNc6ccc([N+](=O)[O-])c7nonc67)[C@H](O)C(C)(C)[C@@H]5CC[C@]43C)[C@@H]2C1 [Compound 4, Benzyl 3β-Hydroxy-2α-((6-((7-nitrobenzo[c][1,2,5]oxadiazol-4-yl)amino)hexanoyl)oxy)olean-12-en-28-oate] | 96.4 ± 0.9 | 121 ± 4 | > 80 | 480 | 1338 | 7.650 | 0.72 | 545 | 91.2 ± 2.3
CC1(C)CC[C@]2(C(=O)O)CC[C@]3(C)C(=CC[C@@H]4[C@@]5(C)CC[C@H](OC(=O)CCCCCCCNc6ccc([N+](=O)[O-])c7nonc67)C(C)(C)[C@@H]5CC[C@]43C)[C@@H]2C1 [Compound 5, 3β-((8-((7-Nitrobenzo[c][1,2,5]oxadiazol-4-yl)amino)octanoyl)oxy)olean-12-en-28-oic Acid] | 137 ± 2 | 105 ± 1.2 | > 50 | 480 | 1144 | 7.654 | 0.73 | 545 | 95.7 ± 3.4
CC1(C)CC[C@]2(C(=O)O)CC[C@]3(C)C(=CC[C@@H]4[C@@]5(C)C[C@@H](OC(=O)CCCCCCCNc6ccc([N+](=O)[O-])c7nonc67)[C@H](O)C(C)(C)[C@@H]5CC[C@]43C)[C@@H]2C1 [Compound 6, 3β-Hydroxy-2α-((8-((7-nitrobenzo[c][1,2,5]oxadiazol-4-yl)amino)octanoyl)oxy)olean-12-en-28-oic Acid] | 39.5 ± 0.8 | 45.2 ± 0.9 | > 50 | 481 | 1986 | 7.621 | 0.55 | 546 | 98.5 ± 0.8
CC1(C)CC[C@]2(C(=O)OCc3ccccc3)CC[C@]3(C)C(=CC[C@@H]4[C@@]5(C)CC[C@H](OC(=O)CCCCCCCNc6ccc([N+](=O)[O-])c7nonc67)C(C)(C)[C@@H]5CC[C@]43C)[C@@H]2C1 [Compound 7, Benzyl 3β-((8-((7-Nitrobenzo[c][1,2,5]oxadiazol-4-yl)amino)octanoyl)oxy)olean-12-en-28-oate] | 74.2 ± 2.2 | 95.9 ± 2.2 | > 80 | 480 | 2645 | 7.724 | 0.71 | 547 | 71.6 ± 1.7
CC1(C)CC[C@]2(C(=O)OCc3ccccc3)CC[C@]3(C)C(=CC[C@@H]4[C@@]5(C)CC[C@H](OC(=O)CCCCCCCCCCNc6ccc([N+](=O)[O-])c7nonc67)C(C)(C)[C@@H]5CC[C@]43C)[C@@H]2C1 [Compound 11] | 92.3 ± 1.5 | 101 ± 1.1 | > 80 | 480 | 2718 | 7.645 | 0.49 | 546 | 82.7 ± 2.5
CC1(C)CC[C@]2(C(=O)O)CC[C@]3(C)C(=CC[C@@H]4[C@@]5(C)C[C@@H](O)[C@H](O)C(C)(C)[C@@H]5CC[C@]43C)[C@@H]2C1 [MA, 2α,3β-dihydroxyolean-12-en-28-oic acid, reference compound] | 36.2 ± 2.5 | 32.2 ± 3.8 |  |  |  |  |  |  | 99.2 ± 5.5

Continued by falling IC50 [1], values first:

IC50 [1] [µM] | IC50 [2] [µM] | IC50 [4] [µM] | (λabs)max [5] [nm] | ε (molar extinction coefficient) [5] [M^–1 cm^–1] | τ (half-life time of fluorescence) [5] [ns] | Φ (fluorescence quantum yield) [5] | (λem)max [5] [nm] | Compound | IC50 [3] [µM]
107.7 ± 0.4 | 110 ± 5.2 | > 50 | 481 | 1199 | 7.153 | 0.45 | 546 | CC1(C)CC[C@]2(C(=O)O)CC[C@]3(C)C(=CC[C@@H]4[C@@]5(C)C[C@@H](OC(=O)CCCCCCCCCCNc6ccc([N+](=O)[O-])c7nonc67)[C@H](O)C(C)(C)[C@@H]5CC[C@]43C)[C@@H]2C1 [Compound 10, 3β-Hydroxy-2α-((11-((7-nitrobenzo[c][1,2,5]oxadiazol-4-yl)amino)undecanoyl)oxy)olean-12-en-28-oic Acid] | 122.8 ± 0.9
106 ± 3.7 | 429.9 ± 0.7 |  |  |  |  |  |  | CC1(C)CC[C@]2(C(=O)O)CC[C@]3(C)C(=CC[C@@H]4[C@@]5(C)CC[C@H](O)C(C)(C)[C@@H]5CC[C@]43C)[C@@H]2C1 [OA, 3β-hydroxyolean-12-en-28-oic acid, reference compound] | 211.8 ± 0.5
101.1 ± 0.9 | 113 ± 4.4 | > 50 | 481 | 1015 | 7.635 | 0.71 | 546 | CC1(C)CC[C@]2(C(=O)O)CC[C@]3(C)C(=CC[C@@H]4[C@@]5(C)CC[C@H](OC(=O)CCCCCCCCCCNc6ccc([N+](=O)[O-])c7nonc67)C(C)(C)[C@@H]5CC[C@]43C)[C@@H]2C1 [Compound 9, 3β-((11-((7-Nitrobenzo[c][1,2,5]oxadiazol-4-yl)amino)undecanoyl)oxy)olean-12-en-28-oic Acid] | 84.5 ± 0.4
96.8 ± 1.8 | 123 ± 1.7 | > 80 | 481 | 3358 | 7.639 | 0.59 | 548 | CC1(C)CC[C@]2(C(=O)OCc3ccccc3)CC[C@]3(C)C(=CC[C@@H]4[C@@]5(C)C[C@@H](OC(=O)CCCCCCCNc6ccc([N+](=O)[O-])c7nonc67)[C@H](O)C(C)(C)[C@@H]5CC[C@]43C)[C@@H]2C1 [Compound 8, Benzyl 3β-Hydroxy-2α-((8-((7-nitrobenzo[c][1,2,5]oxadiazol-4-yl)amino)octanoyl)oxy)olean-12-en-28-oate] | 95.3 ± 0.7
80.8 ± 0.9 | 108 ± 3.8 | > 80 | 480 | 2710 | 7.633 | 0.46 | 546 | CC1(C)CC[C@]2(C(=O)OCc3ccccc3)CC[C@]3(C)C(=CC[C@@H]4[C@@]5(C)C[C@@H](OC(=O)CCCCCCCCCCNc6ccc([N+](=O)[O-])c7nonc67)[C@H](O)C(C)(C)[C@@H]5CC[C@]43C)[C@@H]2C1 [Compound 12] | 80.9 ± 1.1
